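Exposure lasted 48 hours, with cells grown in 96-well plates and compounds tested at five concentrations. GI50: concentration for 50% inhibition of growth.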 Calls of active or inactive are those of the source. Cut-off read from the data, not from the text of the source: active = GI50 up to about 1.1 µM and inactive = higher.
Legend:
Experiment in all cases: growth of human tumour cells (NCI), 48 h
[1] = system: CCRF-CEM
[2] = system: OVCAR-3
[3] = system: HL-60
[4] = system: T47D
[5] = system: BT-549
[6] = system: SN12C
[7] = system: U-251
[8] = system: UO-31
[9] = system: OVCAR-4
[10] = system: PC-3
[11] = system: ACHN
[12] = system: HCT-116
[13] = system: RPMI-8226
[14] = system: A498
[15] = system: MDA-MB-435
[16] = system: LOX IMVI
[17] = system: UACC-62
[18] = system: UACC-257
[19] = system: KM12
[20] = system: HT-29
[21] = system: MCF7
[22] = system: HCC 2998
[23] = system: SK-MEL-5
[24] = system: OVCAR-5
[25] = system: OVCAR-8
[26] = system: EKVX
[27] = system: CAKI-1
[28] = system: M14
[29] = system: NCI/ADR-RES
[30] = system: COLO 205
[31] = system: IGROV-1
[32] = system: MOLT-4
[33] = system: SK-MEL-28
[34] = system: NCI-H23
[35] = system: NCI-H522
[36] = system: SF-539
[37] = system: SR
[38] = system: A549
[39] = system: NCI-H226
[40] = system: HCT-15
[41] = system: 786-0
[42] = system: HOP-62
[43] = system: RXF 393
[44] = system: HOP-92
[45] = system: SF-268
[46] = system: NCI-H460
[47] = system: TK-10
[48] = system: SW-620
[49] = system: SF-295
[50] = system: Hs-578T
[51] = system: MDA-MB-231
[52] = system: SNB-19
[53] = system: K562
[54] = system: SK-MEL-2
[55] = system: DU-145
[56] = system: SK-OV-3
[57] = system: SNB-75
[58] = system: Malme-3M

## O=Cc1ccc(-c2cccc([N+](=O)[O-])c2)s1
[1]
  GI50: 96.2 µM (inactive)
[2]
  GI50: > 100 µM (inactive)
[3]
  GI50: 64.4 µM (inactive)
[4]
  GI50: 86.5 µM (inactive)
[5]
  GI50: 81.1 µM (inactive)
[6]
  GI50: > 100 µM (inactive)
[7]
  GI50: 45.4 µM (inactive)
[8]
  GI50: 65.8 µM (inactive)
[9]
  GI50: > 100 µM (inactive)
[10]
  GI50: > 100 µM (inactive)
[11]
  GI50: > 100 µM (inactive)
[12]
  GI50: > 100 µM (inactive)
[13]
  GI50: 67 µM (inactive)
[14]
  GI50: 16.9 µM (inactive)
[15]
  GI50: > 100 µM (inactive)
[16]
  GI50: > 100 µM (inactive)
[17]
  GI50: > 100 µM (inactive)
[18]
  GI50: > 100 µM (inactive)
[19]
  GI50: > 100 µM (inactive)
[20]
  GI50: > 100 µM (inactive)
[21]
  GI50: > 100 µM (inactive)
[22]
  GI50: > 100 µM (inactive)
[23]
  GI50: > 100 µM (inactive)
[24]
  GI50: > 100 µM (inactive)
[25]
  GI50: 80.9 µM (inactive)
[26]
  GI50: 71.4 µM (inactive)
[27]
  GI50: > 100 µM (inactive)
[28]
  GI50: > 100 µM (inactive)
[29]
  GI50: 94.6 µM (inactive)
[30]
  GI50: > 100 µM (inactive)
[31]
  GI50: > 100 µM (inactive)
[32]
  GI50: 41.2 µM (inactive)
[33]
  GI50: > 100 µM (inactive)
[34]
  GI50: > 100 µM (inactive)
[35]
  GI50: > 100 µM (inactive)
[36]
  GI50: > 100 µM (inactive)
[37]
  GI50: 56.5 µM (inactive)
[38]
  GI50: > 100 µM (inactive)
[39]
  GI50: 67.5 µM (inactive)
[40]
  GI50: > 100 µM
[41]
  GI50: 80 µM (inactive)
[42]
  GI50: > 100 µM (inactive)
[43]
  GI50: 54.3 µM (inactive)
[44]
  GI50: > 100 µM (inactive)
[45]
  GI50: > 100 µM (inactive)
[46]
  GI50: > 100 µM (inactive)
[47]
  GI50: > 100 µM (inactive)
[48]
  GI50: > 100 µM (inactive)
[49]
  GI50: > 100 µM (inactive)
[50]
  GI50: 53.6 µM (inactive)
[51]
  GI50: > 100 µM (inactive)
[52]
  GI50: > 100 µM (inactive)
[53]
  GI50: 72.1 µM (inactive)
[54]
  GI50: > 100 µM (inactive)
[55]
  GI50: 61 µM (inactive)
[56]
  GI50: > 100 µM (inactive)
[57]
  GI50: 70.8 µM (inactive)

## c1ccc2c(c1)ccc1ncccc12
[2]
  GI50: > 100 µM (inactive)
[3]
  GI50: > 100 µM (inactive)
[4]
  GI50: > 100 µM (inactive)
[5]
  GI50: 47.1 µM (inactive)
[6]
  GI50: > 100 µM (inactive)
[7]
  GI50: 79.3 µM (inactive)
[8]
  GI50: > 100 µM (inactive)
[9]
  GI50: > 100 µM (inactive)
[10]
  GI50: 98.2 µM (inactive)
[11]
  GI50: > 100 µM (inactive)
[12]
  GI50: > 100 µM (inactive)
[13]
  GI50: > 100 µM (inactive)
[14]
  GI50: 55.8 µM (inactive)
[15]
  GI50: > 100 µM (inactive)
[16]
  GI50: > 100 µM (inactive)
[17]
  GI50: 83.8 µM (inactive)
[18]
  GI50: > 100 µM (inactive)
[19]
  GI50: > 100 µM (inactive)
[20]
  GI50: > 100 µM (inactive)
[21]
  GI50: > 100 µM (inactive)
[22]
  GI50: > 100 µM (inactive)
[23]
  GI50: 75.2 µM (inactive)
[24]
  GI50: > 100 µM (inactive)
[25]
  GI50: > 100 µM (inactive)
[26]
  GI50: > 100 µM (inactive)
[27]
  GI50: 85.9 µM (inactive)
[28]
  GI50: > 100 µM (inactive)
[29]
  GI50: > 100 µM (inactive)
[30]
  GI50: > 100 µM (inactive)
[31]
  GI50: > 100 µM (inactive)
[32]
  GI50: > 100 µM (inactive)
[33]
  GI50: > 100 µM (inactive)
[34]
  GI50: > 100 µM (inactive)
[58]
  GI50: > 100 µM (inactive)
[35]
  GI50: > 100 µM (inactive)
[36]
  GI50: > 100 µM (inactive)
[37]
  GI50: 58.2 µM (inactive)
[38]
  GI50: > 100 µM (inactive)
[39]
  GI50: > 100 µM (inactive)
[40]
  GI50: 58.2 µM
[41]
  GI50: > 100 µM (inactive)
[42]
  GI50: > 100 µM (inactive)
[43]
  GI50: > 100 µM (inactive)
[44]
  GI50: 44.6 µM (inactive)
[45]
  GI50: > 100 µM (inactive)
[46]
  GI50: > 100 µM (inactive)
[47]
  GI50: > 100 µM (inactive)
[48]
  GI50: > 100 µM (inactive)
[49]
  GI50: > 100 µM (inactive)
[50]
  GI50: > 100 µM (inactive)
[51]
  GI50: > 100 µM (inactive)
[52]
  GI50: 85.7 µM (inactive)
[53]
  GI50: > 100 µM (inactive)
[54]
  GI50: > 100 µM (inactive)
[55]
  GI50: > 100 µM (inactive)
[57]
  GI50: > 100 µM (inactive)

## Nc1cc(Cl)ccc1SSc1ccc(Cl)cc1N
[1]
  GI50: 3.07 µM (inactive)
[3]
  GI50: 16 µM (inactive)
[4]
  GI50: 5.92 µM (inactive)
[5]
  GI50: 9.91 µM (inactive)
[6]
  GI50: 11.9 µM (inactive)
[7]
  GI50: 4.15 µM (inactive)
[8]
  GI50: 7 µM (inactive)
[9]
  GI50: 13.6 µM (inactive)
[10]
  GI50: 5.7 µM (inactive)
[11]
  GI50: 9.55 µM (inactive)
[12]
  GI50: 9.16 µM (inactive)
[13]
  GI50: 3.72 µM (inactive)
[15]
  GI50: 12.9 µM (inactive)
[16]
  GI50: 3.49 µM (inactive)
[17]
  GI50: 2.88 µM (inactive)
[18]
  GI50: 17.6 µM (inactive)
[19]
  GI50: 9.51 µM (inactive)
[20]
  GI50: 16.1 µM (inactive)
[21]
  GI50: 3.85 µM (inactive)
[23]
  GI50: 14 µM (inactive)
[24]
  GI50: 14.8 µM (inactive)
[25]
  GI50: 16.6 µM (inactive)
[26]
  GI50: 9.55 µM (inactive)
[27]
  GI50: 19.6 µM (inactive)
[28]
  GI50: 8.65 µM (inactive)
[29]
  GI50: 7.94 µM (inactive)
[30]
  GI50: 16.8 µM (inactive)
[31]
  GI50: 10.1 µM (inactive)
[32]
  GI50: 4.06 µM (inactive)
[33]
  GI50: 15.9 µM (inactive)
[34]
  GI50: 5.61 µM (inactive)
[58]
  GI50: 15.7 µM (inactive)
[35]
  GI50: 7.57 µM (inactive)
[36]
  GI50: 12 µM (inactive)
[37]
  GI50: 4.32 µM (inactive)
[38]
  GI50: 23.1 µM (inactive)
[39]
  GI50: 2.94 µM (inactive)
[40]
  GI50: 2.99 µM
[41]
  GI50: 13.2 µM (inactive)
[42]
  GI50: 14.6 µM (inactive)
[43]
  GI50: 10.3 µM (inactive)
[44]
  GI50: 41.7 µM (inactive)
[45]
  GI50: 14.7 µM (inactive)
[46]
  GI50: 12.5 µM (inactive)
[47]
  GI50: 20.2 µM (inactive)
[48]
  GI50: 3.94 µM (inactive)
[49]
  GI50: 11 µM (inactive)
[50]
  GI50: 8.79 µM (inactive)
[51]
  GI50: 5.6 µM (inactive)
[52]
  GI50: 22.6 µM (inactive)
[53]
  GI50: 10.4 µM (inactive)
[54]
  GI50: 17 µM (inactive)
[55]
  GI50: 15.2 µM (inactive)
[56]
  GI50: 15.7 µM (inactive)
[57]
  GI50: 16.8 µM (inactive)

From ChEMBL document CHEMBL1201862, “PubChem BioAssay data set” (2004)
